Laboratory results reported in US12459951B2, “Compounds that interact with RAS superfamily proteins for treatment of cancers, inflammatory diseases, rasopathies, and fibrotic disease” (SHY Therapeutics, LLC, priority 2022, dated 2025).

Assays:
[1] = Kinetic Solubility Assay in pH 7.4 Buffer + 2% DMSO; format: physicochemical; conditions: phosphate-buffered saline pH 7.4 with 2% DMSO, aqueous buffer, kinetic from dmso stock, 25° C., two hours
Protocol: Biological Example 9: Kinetic Solubility
Kinetic solubility assay in pH 7.4 Buffer+2% DMSO (“Kinetic Solubility Assay) was performed according to the following protocol: Briefly, using a 20 mM stock solution of the tested compounds in 100% DMSO, dilutions were prepared to a theoretical concentration of 400 μM in duplicates in phosphate-buffered saline pH 7.4 (138 mM NaCl, 2.7 mM KCl, 10 mM K-phosphate) with 2% final DMSO. The tested compounds dilutions in PBS were further allowed to equilibrate at 25° C. on a thermostatic shaker for two hours and then filtered through HTS filter plates using a vacuum manifold. The filtrates of the test compounds were diluted 2-fold with acetonitrile with 2% DMSO before measuring.
In parallel, using a 20 mM stock solution of the tested compounds in 100% DMSO, dilutions were prepared to theoretical concentrations of 0 μM (blank), 10 μM, 25 μM, 50 μM, 100 μM, and 200 μM in 50% acetonitrile/PBS with 2% final DMSO to generate calibration curves. Ondansetron was used as a reference compound to control proper assay performance. 200 μL of each sample was transferred to a 96-well plate and measured in the 230-550 nm range with a 5 nm step.
The concentrations of compounds in PBS filtrate are calculated using a dedicated Microsoft Excel calculation script. Proper absorbance wavelengths for calculations are selected for each compound manually based on absorbance maximums (absolute absorbance unit values for the minimum and maximum concentration points within the 0-3 OD range). Each final dataset is visually evaluated by the operator, and goodness of fit (R2) is calculated for each calibration curve. The effective range of this assay is approximately 2-400 μM and the compounds returning values close to the upper limit of the range may have higher actual solubility (e.g., 5′-deoxy-5-fluorouridine).
Table 8 show kinetic solubility data for selected compounds tested in the Kinetic Solubility assay described above.

[2] = Mouse Liver Microsome Metabolic Stability Assay; format: in vitro ADME; conditions: pH 7.4, Mouse liver microsomes, 37° C., NADPH, read-out: t½
Protocol: Biological Example 10: Assessment of Metabolic Stability in Mouse Liver Microsomes
Metabolic Stability Assay: Microsomal incubations were carried out in 96-well plates in 5 aliquots of 30 μL each (one for each time point). Liver microsomal incubation medium comprised of phosphate buffer (100 mM, pH 7.4), MgCl2 (3.3 mM), NADPH (3 mM), glucose-6-phosphate (5.3 mM), glucose-6-phosphate dehydrogenase (0.67 units/ml) with 0.42 mg of liver microsomal protein per mL. In the control reactions the NADPH-cofactor system was substituted with phosphate buffer. Test compounds (2 μM, final solvent concentration 1.6%) were incubated with microsomes at 37° C., shaking at 100 rpm. Each reaction was performed in duplicates. Five time points over 40 minutes were analyzed. The reactions were stopped by adding 5 volumes of methanol containing internal standard to incubation aliquots, followed by protein sedimentation by centrifuging at 5500 rpm for 4 minutes. Supernatants were analyzed using the HPLC system coupled with tandem mass spectrometer.
The elimination constant (kel), half-life (t1/2) and intrinsic clearance (Clint) were determined in plot of […] versus time, using linear regression analysis:
In order to indicate the quality of the linear regression analysis, the R (correlation coefficient) values are provided. In some cases, the last time point is excluded from the calculations to ensure acceptable logarithmic linearity of decay.
Table 9 show metabolic stability data for selected compounds tested in the Mouse Liver Microsome Metabolic Stability assay described above.

[3] = test system: Smad2/Smad3 phosphorylation; test: Phospho-Smad2/3 Inhibition Assay (western blot), Panc-1; format: cell-based, human; conditions: at 10 μM, Panc-1 pancreatic cancer cell line; starred symbols = activation
Outline: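 Western blotting of lysates (15-50 μg protein) read phosphorylation of Smad2 Ser465/467 and Smad3 Ser423/425. Before lysis, Panc-1 cells got 1 h of 10 ng/ml TGF-b1 following 3 h compound exposure at 37° C (10 μM final, or serial dilutions for IC50, 0.3% DMSO) after overnight 0.5% FBS starvation.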

Row | solubility at 2 h [1] [µM] | half-life at 2 µM [2] [min] | SMILES | % inh of Smad2/3 phosphorylation in Panc-1 [3]
1 | < 10 | < 10 | Cc1c(-c2ccn(C3CC3)n2)cn2nc(-c3nccn3C)nc(Nc3ccccn3)c12 [Compound 143, 6-(1-Cyclopropyl-1H-pyrazol-3-yl)-5-methyl-2-(1-methyl-1H-imidazol-2-yl)-N-(pyridin-2-yl)pyrrolo[2,1-f][1,2,4]triazin-4-amine] | A (A = 1-25% inhibition)
2 |  | > 10 | Cc1c(-c2cccnc2)cn2nc(-c3nccn3C)nc(Nc3ccncn3)c12 [Compound 156, 5-Methyl-2-(1-methyl-1H-imidazol-2-yl)-6-(pyridin-3-yl)-N-(pyrimidin-4-yl)pyrrolo[2,1-f][1,2,4]triazin-4-amine] | D (D = 76-100% inhibition)
3 | 10 to 30 | > 10 | CCOc1ccnc(Nc2nc(-c3nccn3C)nn3cc(-c4ccn(C5CC5)n4)c(C)c23)c1 [Compound 141, 6-(1-Cyclopropyl-1H-pyrazol-3-yl)-N-(4-ethoxypyridin-2-yl)-5-methyl-2-(1-methyl-1H-imidazol-2-yl)pyrrolo[2,1-f][1,2,4]triazin-4-amine] | D (D = 76-100% inhibition)
4 | 10 to 30 | > 10 | Cc1c(-c2ccn(C3CC3)n2)cn2nc(-c3nccn3C)nc(Nc3cc(OC4CC4)ccn3)c12 [Compound 142, N-(4-Cyclopropoxypyridin-2-yl)-6-(1-cyclopropyl-1H-pyrazol-3-yl)-5-methyl-2-(1-methyl-1H-imidazol-2-yl)pyrrolo[2,1-f][1,2,4]triazin-4-amine] | C (C = 46-75% inhibition)
5 | < 10 | > 10 | Cc1ccnc(Nc2nc(-c3nccn3C)nn3cc(-c4ccn(C5CC5)n4)c(C)c23)c1 [Compound 144, 6-(1-Cyclopropyl-1H-pyrazol-3-yl)-5-methyl-2-(1-methyl-1H-imidazol-2-yl)-N-(4-methylpyridin-2-yl)pyrrolo[2,1-f][1,2,4]triazin-4-amine] | D (D = 76-100% inhibition)
6 | < 10 | > 10 | COc1ccnc(Nc2nc(-c3nccn3C)nn3cc(-c4cccnc4)c(C)c23)c1 [Compound 157, N-(4-Methoxy-pyridin-2-yl)-5-methyl-2-(1-methyl-1H-imidazol-2-yl)-6-(pyridin-3-yl)pyrrolo[2,1-f][1,2,4]triazin-4-amine] | B* (B* = 26-45% activation)
7 | 10 to 30 | < 10 | COc1ccnc(Nc2nc(-c3nccn3C)nn3cc(-c4cccnc4)c(C)c23)n1 [Compound 158, N-(4-Methoxy-pyrimidin-2-yl)-5-methyl-2-(1-methyl-1H-imidazol-2-yl)-6-(pyridin-3-yl)pyrrolo[2,1-f][1,2,4]triazin-4-amine] | B* (B* = 26-45% activation)

More lines, now with the values behind:

Row | SMILES | solubility at 2 h [1] [µM] | half-life at 2 µM [2] [min] | % inh of Smad2/3 phosphorylation in Panc-1 [3]
8 | Cc1c(-c2ccn(C)n2)cn2nc(-c3nccn3C)nc(Nc3cc(OC4CC4)ccn3)c12 [Compound 126, N-(4-Cyclopropoxypyridin-2-yl)-5-methyl-2-(1-methyl-1H-imidazol-2-yl)-6-(1-methyl-1H-pyrazol-3-yl)pyrrolo[2,1-f][1,2,4]triazin-4-amine] |  | > 10 | A* (A* = 1-25% activation)
9 | Cc1c(-c2ccn(C)n2)cn2nc(-c3nccn3C)nc(Nc3cc(C4CC4)[nH]n3)c12 [Compound 104, N-(5-Cyclopropyl-1H-pyrazol-3-yl)-5-methyl-2-(1-methyl-1H-imidazol-2-yl)-6-(1-methyl-1H-pyrazol-3-yl)pyrrolo[2,1-f][1,2,4]triazin-4-amine] | < 10 | > 10 | D* (D* = 76-100% activation)
10 | Cc1c(-c2ccn(C)n2)cn2nc(-c3nccn3C)nc(Nc3ccncn3)c12.Cl [Compound 116, 5-Methyl-2-(1-methyl-1H-imidazol-2-yl)-6-(1-methyl-1H-pyrazol-3-yl)-N-(pyrimidin-4-yl)pyrrolo[2,1-f][1,2,4]triazin-4-amine hydrochloride salt] | 10 to 30 |  | D (D = 76-100% inhibition)
11 | COc1ccnc(Nc2nc(-c3nccn3C)nn3cc(-c4ccn(C)n4)c(C)c23)c1 [Compound 102, N-(4-Methoxypyridin-2-yl)-5-methyl-2-(1-methyl-1H-imidazol-2-yl)-6-(1-methyl-1H-pyrazol-3-yl)pyrrolo[2,1-f][1,2,4]triazin-4-amine] | > 30 | > 10 | A* (A* = 1-25% activation)
12 | Cc1c(-c2ccn(C)n2)cn2nc(-c3nccn3C)nc(Nc3cc4n(n3)CCO4)c12 [Compound 124, N-(5-Methyl-2-(1-methyl-1H-imidazol-2-yl)-6-(1-methyl-1H-pyrazol-3-yl)pyrrolo[2,1-f][1,2,4]triazin-4-yl)-2,3-dihydropyrazolo[5,1-b]oxazol-6-amine] | 10 to 30 | > 10 | A (A = 1-25% inhibition)
13 | Cc1c(-c2ccn(C)n2)cn2nc(-c3nccn3C)nc(Nc3ccccn3)c12 [Compound 118, 5-Methyl-2-(1-methyl-1H-imidazol-2-yl)-6-(1-methyl-1H-pyrazol-3-yl)-N-(pyridin-2-yl)pyrrolo[2,1-f][1,2,4]triazin-4-amine] | > 30 |  | A* (A* = 1-25% activation)
14 | Cc1c(-c2ccn(C)n2)cn2nc(-c3nccn3C)nc(Nc3cc(OCC(F)(F)F)ccn3)c12 [Compound 129, 5-Methyl-2-(1-methyl-1H-imidazol-2-yl)-6-(1-methyl-1H-pyrazol-3-yl)-N-(4-(2,2,2-trifluoroethoxy)pyridin-2-yl)pyrrolo[2,1-f][1,2,4]triazin-4-amine] |  | > 10 | D* (D* = 76-100% activation)
15 | Cc1c(-c2ccn(C)n2)cn2nc(-c3nccn3C)nc(Nc3cc4n(n3)CCC4)c12 [Compound 100, N-(5,6-Dihydro-4H-pyrrolo[1,2-b]pyrazol-2-yl)-5-methyl-2-(1-methyl-1H-imidazol-2-yl)-6-(1-methyl-1H-pyrazol-3-yl)pyrrolo[2,1-f][1,2,4]triazin-4-amine] | 10 to 30 |  | C* (C* = 46-75% activation)
16 | Cc1c(-c2ccn(C)n2)cn2nc(-c3nccn3C)nc(Nc3cc(OC(F)(F)F)ccn3)c12 [Compound 127, 5-Methyl-2-(1-methyl-1H-imidazol-2-yl)-6-(1-methyl-1H-pyrazol-3-yl)-N-(4-(trifluoromethoxy)pyridin-2-yl)pyrrolo[2,1-f][1,2,4]triazin-4-amine] |  | < 10 | A (A = 1-25% inhibition)
17 | Cc1c(-c2ccn(C)n2)cn2nc(-c3nccn3C)nc(Nc3cc(OC(F)F)ccn3)c12 [Compound 128, N-(4-(Difluoromethoxy)pyridin-2-yl)-5-methyl-2-(1-methyl-1H-imidazol-2-yl)-6-(1-methyl-1H-pyrazol-3-yl)pyrrolo[2,1-f][1,2,4]triazin-4-amine] |  | > 10 | A (A = 1-25% inhibition)
